Measured values from publication PMC7961786, “Magic Peptide: Unique Properties of the LRR11 Peptide in the Activation of Leukotriene Synthesis in Human Neutrophils” (International Journal of Molecular Sciences, 2021).

System: 5′-biotinylated C-CpG
Assay: TSM acoustic biosensor, peptide binding to immobilized C-CpG
Excerpt: To characterize the interaction of the studied synthetic ODNs with the LRR11 peptide, we applied the thickness shear mode (TSM) acoustic biosensor method, which is based on the investigation of ultrasonic waves in piezoelectric materials such as AT-cut quartz. This approach involved immobilizing a 5′-biotinylated ODN on the surface of TSM transducer covered by NeutrAvidin and then adding the LRR11 peptide. An unrelated peptide (URP) with a random primary structure ([…]) was used as a negative control. The measurement procedure was divided into several steps, in which each immobilization stage was followed by washing with an appropriate buffer solution; when peptide solutions at different concentrations (from 1 to 100 nM) were added to the surface-modified TSM transducer, a wash with Hanks buffer was used before increasing the peptide concentration.
Based on Langmuir isotherm Equation (1), (1) Δfcc=Δfsmaxc/KD+c where Δfs(c) is the frequency change at a certain peptide concentration under equilibrium conditions, (Δfs)max is the maximum frequency change, c is the peptide concentration, and KD is the equilibrium constant of dissociation, we estimated the (Δfs)max and KD values for binding of the LRR11 peptide to C-CpG and B-CpG (Table 3).
Using Sauerbrey’s Equation (2), (2) Δf=−2f02Δm/Aμqρq where f0 is the fundamental resonance frequency (in our case 8 MHz), Δm is the change in mass (in grams) of the adsorbed layer on the crystal surface, A is the effective crystal area (in our case 0.2 cm^2), μq = 2.947 × 10^11 g × cm^−1s^−2 is the shear modulus of elasticity, and ρq = 2.648 g × cm^−3 is the crystal density, surface concentrations of NeutrAvidin, ODN and LRR11 peptide were estimated based on changes of resonance frequency (Figure 4). According to Equation (2), the surface density of molecules, σ (in molecules/cm^2), can be calculated as σ = ΔmNA/(A × Mw), where NA is Avogadro’s number (=6.023 × 10^23 mol^−1), and Mw represents the molecular weight of the corresponding compound (NeutrAvidin: 65 kDa, 5′-biotinylated C-CpG: 7115.4 Da, and LRR11: 3421 Da). Based on this approach, we obtained the following surface concentration values: 1.94 × 10^13 cm^−2 for NeutrAvidin, 3.37 × 10^13 cm^−2 for C-CpG and 2.4 × 10^13 cm^−2 for LRR11. The NeutrAvidin has four binding sites, two of which are available for biotinylated ODN binding. This is due to the fact that the other two sites are inaccessible due to NeutrAvidin chemisorption on the TSM surface. Thus, the number of available binding sites for the ODN is 3.88 × 10^13 cm^−2. […] Therefore, the surface of the TSM transducer is practically completely saturated by C-CpG. Estimation of the surface concentration of LRR11 evidences that at 50 nM concentration of this peptide, it occupies almost 70.6% of the ODN molecules. […]

Substance | change of ∆fs at low LRR11 concentrations (1, 5, 10 nM LRR11, C-CpG) | KA (LRR11-C-CpG complex, KA = 1/KD) [nM⁻¹] | −(Δfs)max (LRR11 to immobilized C-CpG, Langmuir fit, Hanks buffer, room temperature, LRR11 1-100 nM, three independent experiments) [Hz]
QLRKLNLSFNYQKRVSFAHLSLAPSFGSLV [LRR11, 30 amino acid peptide from leucine-rich repeat of TLR9] | not significant or small changes of ∆fs | – | –
5′-tcgtcgttttcggcgcgcgccg-3′ (DNA TCGTCGTTTTCGGCGCGCGCCG; chemistry not fully specified) [C-CpG] | – | 0.017 ± 0.007 | 33.9 ± 6.4
